Results on 2 molecules are retold here after patent publication US20050153870A1, “Medicinal composition for diagnosis, prevention, or therapy of multiple risk factor syndrome” (priority 2002, published 2005).

The subject of one assay is Rabbit. Kind of assay: Arteriosclerosis suppressing effect, rabbit on hyperfat feed. In kind it is in vivo. The following applies: 0.2 to 0.05% mixed to hyperfat feed. An excerpt:
As to prevention/therapy of arteriosclerosis, a big difference is observed in effect between medicaments conceivably effective in improving arteriosclerosis, such as fibrate series medicament, thiazolidine series medicament, probucol, and statin series medicament and a compound of the present invention.

Another assay deals with DOCA hypertension rat. Kind of assay: Periarteritis nodosa. In kind it is in vivo. Conditions: 50 mg/kg perorally, DOCA/saline administered rat having one of the kidneys excised out. The protocol: Rats having a cardiovascular disease due to hypertension, often develop periarteritis nodosa, which is typical blood-vessel inflammation caused in thin and small artery such as mesenteric artery. […] These are preventive effects. […] To explain more specifically, mineral corticoid is administered to rats having one of the kidneys excised out and raised for a month by giving saline as drinking water. After confirming onset of periarteritis nodosa, administration of mineral corticoid and saline is stopped and the rats are brought back under normal feeding conditions. As a result, the blood pressure of the rats gradually decreases near a normal value and periarteritis nodosa heals and disappears.

A further assay deals with Db/db mouse, Zucker rat. Kind of assay: Insulin sensitivity test. The following applies: feed containing 0.1% for one week, hereditary obese animal. It counts as in vivo.
A further assay has as its system Db/db mouse, ob/ob mouse. Kind of assay: Improvement of polydipsia and polyurea. In kind it is in vivo. The following applies: in feed, hereditary diabetic obese mouse.
For the next assay, the system named is C57BL/6j-ob/ob mice. Kind of assay: AS-6 in feed to ob/ob mice (Example 3). It counts as in vivo, mouse. The following applies: 0.1% in feed, 1 week. The protocol:
C57BL/6j-ob/ob mice, which were model animals of multiple risk factor syndrome, were raised for a week with powered feed in which an ascochlorin derivative, 4-O-carboxymethylascochlorin (AS-6), was mixed in a content of 0.1%. Thereafter, the weight, blood sugar, blood insulin, and blood neutral fat were measured.

Assay [1] concerns Zucker rats. Kind of assay: Glucose tolerance test using Zucker rats (Example 6). In kind it is in vivo, rat. The protocol: The effect of 4-O-carboxymethylascochlorin (AS-6) in a glucose tolerance test were checked by using Zucker rats. Zucker control rats, Zucker AS-6 administered rats (20 mg/kg, perorally for a week), and Lean control rats were fasted overnight. Next morning, blood was taken from the caudal vein, and thereafter, 2 g/kg of glucose was perorally administered. Blood was taken from the caudal vein 30, 60 and 120 minutes after the administration and checked for blood sugar (7 mice/group).

The test system of assay [2] is Zucker rats. Kind of assay: Blood pressure of Zucker rat (Example 8). In kind it is in vivo. The following applies: for blood pressure, change vs Zucker control group / blood pressure: 0.1% in feed; for blood pressure: AS-6 group at 0th week 144 ± 6. Here is the method:
Zucker rats were raised for 4 weeks with feed in which 4-0-carboxylmethyl ascochlorin (AS-6) was mixed in a content of 0.1%. At the 0th, 2nd and 4th week of initiation of feeding, blood pressure was measured (6 rats/group).

[3] abbreviates: Zucker rats, 20 mg/kg perorally for a week.

Structures are written as SMILES. Marks after values point to notes of the source that are not given here.

`COc1c(Cl)c(C)c(C=O)c(O)c1C/C=C(C)/C=C/[C@@]1(C)[C@H](C)CCC(=O)[C@@H]1C` [4-O-methylascochlorin]: the “death from circulatory failure” value in the assay on Rabbit was “infarction derived from arteriosclerosis of the arteria coronaria and suppressing death”. The Periarteritis nodosa result with DOCA hypertension rat was “significantly suppressed. When ascofuranone is perorally administered to SHR of a”.

Consider `CC(C=CC1(C)C(C)CCC(=O)C1C)=CCc1c(O)c(C=O)c(C)c(Cl)c1OCC(=O)O` (stereo not shown) [AS-6, 4-O-carboxymethylascochlorin], for which the sensitivity to insulin entry in the assay on Db/db mouse, Zucker rat was “insulin was significantly improved”. For the same molecule, the “amount of drinking water” value in the assay with Db/db mouse, ob/ob mouse is on record as “obese mouse, the amount of drinking water decreases in a dose-dependent manner,”. Moreover, in the assay on Db/db mouse, ob/ob mouse, the “amount of sugar excreted in the urine” value is “excreted in the urine significantly decreases”. Also, in the assay with C57BL/6j-ob/ob mice, the “Blood sugar, change vs ob/ob control group” value was −32.4%*. For the same molecule, the “Body weight, change vs ob/ob control group” value in the assay on C57BL/6j-ob/ob mice is given as “ns”. Further, the “Cholesterol, change vs ob/ob control group” value in the assay on C57BL/6j-ob/ob mice is “ns”. Also, in the assay on C57BL/6j-ob/ob mice, the “Free fatty acid, change vs ob/ob control group” value is given as −43.6%**. Also, the “Insulin, change vs ob/ob control group” value in the assay with C57BL/6j-ob/ob mice is recorded as −33.8%. Moreover, in the assay with C57BL/6j-ob/ob mice, the “Neutral fat, change vs ob/ob control group” value is −61.0%**. In addition, in the assay with C57BL/6j-ob/ob mice (ob/ob control 1.224 ± 0.072), the Free fatty acid stood at 0.690 ± 0.078 mEq/L. The molecule further gave a Body weight in the assay with C57BL/6j-ob/ob mice (ob/ob control 48.5 ± 0.6) of 47.8 ± 0.6 g. In addition, the Insulin in the assay on C57BL/6j-ob/ob mice (ob/ob control 73.9 ± 16.7) is recorded as 48.9 ± 8.2 μU/mL9. In the assay on C57BL/6j-ob/ob mice (ob/ob control 162.4 ± 16.0), the Neutral fat worked out at 63.2 ± 7.2 mg/dL. Moreover, the Cholesterol in the assay with C57BL/6j-ob/ob mice (ob/ob control 268.5 ± 24.2) is 249.7 ± 12.1 mg/dL. Moreover, the blood sugar in the assay on C57BL/6j-ob/ob mice (ob/ob control 360.4 ± 44.9) amounted to 243.8 ± 15.6 mg/dL; with Zucker rats [1] (20 mg/kg perorally for a week, 0 minute after glucose loading (fasted overnight), Zucker control 107.5 ± 5.0), 86.3 ± 4.5; with Zucker rats [1] (20 mg/kg perorally for a week, 30 minutes after glucose loading, Zucker control 235.1 ± 9.6), 167.5 ± 3.8; in the assay with Zucker rats [1] (20 mg/kg perorally for a week, 60 minutes after glucose loading, Zucker control 275.8 ± 13.2), 220.2 ± 5.0; in the assay with Zucker rats [1] (20 mg/kg perorally for a week, 120 minutes after glucose loading, Zucker control 290.3 ± 4.6) it was 202.8 ± 3.6. Moreover, the “risk factors except for body weight and blood cholesterol” value with C57BL/6j-ob/ob mice (ob/ob mice) was “significantly reduced”. The “blood sugar, change vs Zucker control group” value is given as −19.7%(*) with Zucker rats [1] (0 minute after glucose loading), −28.8%(**) in the assay on Zucker rats [1] (30 minutes after glucose loading), −20.2%(*) with Zucker rats [1] (60 minutes after glucose loading) and −30.1%(**) in the assay on Zucker rats [1] (120 minutes after glucose loading). Also, in the assay with Zucker rats [1] (setting [3]), the “blood sugar level 30, 60, 120 minutes after glucose loading” value was “significant decreases”. Besides, the “decrease of fasting blood sugar level” value with Zucker rats [1] (setting [3]) is on record as 19.7%. The figures for the “blood pressure, change vs Zucker control group” value with Zucker rats [2] (2nd week) and in the assay on Zucker rats [2] (4th week) were −13.7%(**) and −19.9%(**), respectively. Also, the blood pressure with Zucker rats [2] (2nd week, Zucker control 153 ± 6) is 132 ± 5; in the assay with Zucker rats [2] (4th week, Zucker control 156 ± 7) it was 125 ± 6. The figures for the “decrease in blood pressure in comparison with the Zucker control group” value in the assay with Zucker rats [2] (2nd week after the initiation of feeding) and with Zucker rats [2] (4th week after the initiation of feeding) were 13.7% and 19.9%, respectively.
